target: T1, human LPAR1 (Homo sapiens, UniProt Q92633); assay: Arrestin assay (Arrestin Reporter EDG2-bla U2OS), inhibition of LPA-stimulated signal; assay type: cell-based; conditions: TangoEDG2-bla U2OS cells expressing human LPAR1; 0.25 μM LPA; read-out: Arrestin Reporter EDG2-bla U2OS Human Merged IC50
T1 construct: host or cells: TangoEDG2-bla U2OS cells
Protocol: The inhibitory activity of compounds 15, 62, 77, 84 and 169 against LPAR1 was measured using an Arrestin assay in U2OS cells expressing human LPAR1.
FreeStyle media was warmed in a 37° C. water bath. Cryo-preserved vial(s) of TangoEDG2-bla U2OS cells were rapidly thawed in a 37° C. water bath. The thawed cells were added to FreeStyle media and cells were pelleted at 300×g for 5 minutes. The supernatant was aspirated, and cells were resuspended in FreeStyle media. Cell density was adjusted to 0.25×10^6 cells/mL. Cells (1×10^4 in 40 μL) were added to each well of Greiner 384 well black cell plate(s). Cell plate(s) were placed in a humidified 37° C./5% CO2 incubator for 18-20 hours. Dilutions of test compound were prepared at 6× final concentration; 12-point, 3-fold dilutions using HH Buffer (1×HBSS plus 20 mM HEPES). The 6× test compound was then added to the cell plate(s) at 10 μL/well. The final concentration ranged from 10 μM to 0.00006 μM. Cell plate(s) were incubated in a humidified 37° C./5% CO2 incubator for 1 hour. During the incubation, 6×LPA was prepared at 1.5 μM in 0.1% BSA HH Buffer. After the 1-hour incubation of test compound with cells, the LPA was added to the cell plate(s) at 10 μL/well (final LPA concentration of 0.25 μM). Cell plate(s) were returned to a humidified 37° C./5% CO2 incubator for 3 hours. The Development solution was made up per the LiveBLAzerFRET B/G kit protocol. The Development solution was added to the cell plate(s) at 10 μL/well. Cell plates were incubated in the dark at room temperature for 2 hours. Plate(s) were read on an Envision Plate Reader (Perkin Elmer) to read fluorescence; excitation at 409 nm with emission at 460 nm and 530 nm. Raw Data for analysis is the ratio of emission at 460 nm divided by emission 530 nm. The formula used to determine % Inhibition is as follows (1−(Raw Data−Low Average)/(High Average−Low Average))*100. Percent Inhibition was plotted to determine IC50 value with GraphPad Prism 9.5.0 software using Variable slope 4-parameter curve fit analysis.
Additional compounds of the present disclosure were synthesized in a manner similar to the compounds described above and understood by a person of ordinary skill in the art. The inhibitory activity of the compounds of the present disclosure against LPAR1 was measured using the above-referenced Arrestin Assay protocol.

T1 sequence (Q92633 whole entry): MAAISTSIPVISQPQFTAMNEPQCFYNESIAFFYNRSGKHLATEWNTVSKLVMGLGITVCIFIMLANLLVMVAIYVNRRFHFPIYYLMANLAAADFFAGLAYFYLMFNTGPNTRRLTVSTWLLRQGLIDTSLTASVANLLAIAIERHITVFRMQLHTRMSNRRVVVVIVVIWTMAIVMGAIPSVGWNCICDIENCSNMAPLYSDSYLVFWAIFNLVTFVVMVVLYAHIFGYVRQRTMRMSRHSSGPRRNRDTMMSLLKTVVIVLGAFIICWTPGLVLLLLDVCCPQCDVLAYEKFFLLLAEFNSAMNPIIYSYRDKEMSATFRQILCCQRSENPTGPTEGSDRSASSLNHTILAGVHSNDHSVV

IC50 [nM] | SMILES
49.7 | COCC[C@@H](CN1CCC(C(=O)Nc2ccc(Cl)cc2OC(F)F)(n2nccc2C(C)C)CC1)C(=O)O [Compound 156, (2S)-2-[[4-[[4-chloro-2-(difluoromethoxy)phenyl]carbamoyl]-4-(5-isopropylpyrazol-1-yl)-1-piperidyl]methyl]-4-methoxy-butanoic acid]
44 | CC(C)c1ccnn1C1(C(=O)Nc2ccc(Cl)cc2OC(F)F)CCN(CC2(C(=O)O)CCN(C(=O)CC3CC3)CC2)CC1 [Compound 48]
6.83 | CC(C)c1ccnn1C1(C(=O)Nc2ccc(Cl)cc2OC(F)F)CCN(CC2(C(=O)O)CCN(C(=O)C34CC(C(C)C)(C3)C4)CC2)CC1 [Compound 57, 4-[[4-[[4-chloro-2-(difluoromethoxy)phenyl]carbamoyl]-4-(5-isopropylpyrazol-1-yl)-1-piperidyl]methyl]-1-(3-isopropylbicyclo[1.1.1]pentane-1-carbonyl)piperidine-4-carboxylic acid]
37.2 | CC(C)c1ccnn1C1(C(=O)Nc2ccc(Cl)cc2OC(F)F)CCN(CC2(C(=O)O)CC23CCOCC3)CC1 (stereo not shown) [Compound 73, 2-[[4-[[4-chloro-2-(difluoromethoxy)phenyl]carbamoyl]-4-(5-isopropylpyrazol-1-yl)-1-piperidyl]methyl]-6-oxaspiro[2.5]octane-2-carboxylic acid]
134 | COC(=O)N[C@]1(C(=O)O)C[C@@H](N2CCC(C(=O)Nc3ccc(Cl)cc3OC(F)F)(n3nccc3C(C)C)CC2)C1 [Compound 131]
25.5 | CO[C@H]1C[C@H]([C@@H](CN2CCC(C(=O)Nc3ccc(Cl)cc3OC(F)F)(n3nccc3C(C)C)CC2)C(=O)O)C1 [Compound 230, (2S)-3-[4-[[4-chloro-2-(difluoromethoxy)phenyl]carbamoyl]-4-(5-isopropylpyrazol-1-yl)-1-piperidyl]-2-((1r,3S)-3-methoxycyclobutyl) propanoic acid]
132 | CC(C)c1ccnn1C1(C(=O)Nc2ccc(Cl)cc2OC(F)F)CCN([C@H]2CO[C@H](C(=O)O)C2)CC1 (single isomer, unassigned) [Compound 140]
4.82 | COc1ccc([C@H](CN2CCC(C(=O)Nc3ccc(Cl)cc3OC(F)F)(n3nccc3C(C)C)CC2)C(=O)O)cc1 [Compound 28]
65.6 | COC12CC(C(=O)N3CCC(CN4CCC(C(=O)Nc5ccc(Cl)cc5OC(F)F)(n5nccc5C(C)C)CC4)(C(=O)O)CC3)(C1)C2 [Compound 68, 4-[[4-[[4-chloro-2-(difluoromethoxy)phenyl]carbamoyl]-4-(5-isopropylpyrazol-1-yl)-1-piperidyl]methyl]-1-(3-methoxybicyclo[1.1.1]pentane-1-carbonyl)piperidine-4-carboxylic acid]
10.1 | COc1cccc(C(CN2CCC(C(=O)Nc3ccc(Cl)cc3OC(F)F)(n3nccc3C(C)C)CC2)C(=O)O)c1 (stereo not shown) [Compound 22, 3-[4-[[4-chloro-2-(difluoromethoxy)phenyl]carbamoyl]-4-(5-isopropylpyrazol-1-yl)-1-piperidyl]-2-(3-methoxyphenyl)propanoic acid]
37.9 | COCC[C@@H](CN1CCC(C(=O)Nc2ccc(Cl)cc2OC(F)F)(n2ncc(F)c2C(C)C)CC1)C(=O)O [Compound 190, (2S)-2-[[4-[[4-chloro-2-(difluoromethoxy)phenyl]carbamoyl]-4-(4-fluoro-5-isopropyl-pyrazol-1-yl)-1-piperidyl]methyl]-4-methoxy-butanoic acid]
17.9 | COC[C@H](CN1CCC(C(=O)Nc2ccc(Cl)cc2OC(F)F)(n2ncc(Cl)c2C(C)C)CC1)C(=O)O [Compound 205, (2S)-2-[[4-[[4-chloro-2-(difluoromethoxy)phenyl]carbamoyl]-4-(4-chloro-5-isopropyl-pyrazol-1-yl)-1-piperidyl]methyl]-3-methoxy-propanoic acid]
22.2 | CC(C)c1c(F)cnn1C1(C(=O)Nc2ccc(Cl)cc2OC(F)F)CCN(C[C@H](CO)C(=O)O)CC1 [Compound 213, (2R)-2-[[4-[[4-chloro-2-(difluoromethoxy)phenyl]carbamoyl]-4-(4-fluoro-5-isopropyl-pyrazol-1-yl)-1-piperidyl]methyl]-3-hydroxy-propanoic acid]
11.4 | CC(C)c1ccnn1C1(C(=O)Nc2ccc(Cl)cc2OC(F)F)CCN(CC2(C(=O)O)CC3CCC2C3)CC1 (stereo not shown) [Compound 70, 2-[[4-[[4-chloro-2-(difluoromethoxy)phenyl]carbamoyl]-4-(5-isopropylpyrazol-1-yl)-1-piperidyl]methyl]norbomane-2-carboxylic acid]
6.73 | CCOC(=O)N1CC[C@](CN2CCC(C(=O)Nc3ccc(Cl)cc3OC(F)F)(n3nccc3C(C)C)CC2)(C(=O)O)C1 [Compound 56, (3R)-3-[[4-[[4-chloro-2-(difluoromethoxy)phenyl]carbamoyl]-4-(5-isopropylpyrazol-1-yl)-1-piperidyl]methyl]-1-ethoxycarbonyl-pyrrolidine-3-carboxylic acid]
37.7 | COC1CC(C(CN2CCC(C(=O)Nc3ccc(Cl)cc3OC(F)F)(n3nccc3C(C)C)CC2)C(=O)O)C1 (stereo not shown) [Compound 200, 3-[4-[[4-chloro-2-(difluoromethoxy)phenyl]carbamoyl]-4-(5-isopropylpyrazol-1-yl)-1-piperidyl]-2-(3-methoxycyclobutyl) propanoic acid]
141 | CC(C)c1ccnn1C1(C(=O)Nc2ccc(Cl)cc2OC(F)F)CCN(C2COC(C(=O)O)C2)CC1 (stereo not shown) [Compound 113, 4-[4-[[4-chloro-2-(difluoromethoxy)phenyl]carbamoyl]-4-(5-isopropylpyrazol-1-yl)-1-piperidyl]tetrahydrofuran-2-carboxylic acid]
86.9 | CC(C)c1ccnn1C1(C(=O)Nc2ccc(Cl)cc2OC(F)F)CCN(C[C@@H](C(=O)O)N2C[C@@H](C)O[C@H](C)C2)CC1 [Compound 160, (2S)-3-[4-[[4-chloro-2-(difluoromethoxy)phenyl]carbamoyl]-4-(5-isopropylpyrazol-1-yl)-1-piperidyl]-2-[(2R,6R)-2,6-dimethylmorpholin-4-yl]propanoic acid]
15.5 | COC[C@@H](CN1CCC(C(=O)Nc2ccc(Cl)cc2OC(F)F)(n2nccc2C(C)C)CC1)C(=O)O (single isomer, unassigned) [Compound 119]
40.1 | CC(C)c1ccnn1C1(C(=O)Nc2ccc(Cl)cc2OC(F)F)CCN([C@H]2C[C@@](C(=O)O)(C(F)(F)F)C2)CC1 [Compound 107, (1s,3s)-3-[4-[[4-chloro-2-(difluoromethoxy)phenyl]carbamoyl]-4-(5-isopropylpyrazol-1-yl)-1-piperidyl]-1-(trifluoromethyl) cyclobutanecarboxylic acid]
70.5 | CC(C)c1ccnn1C1(C(=O)Nc2ccc(Cl)cc2OC(F)F)CCN(CC(C)(C(=O)O)C2CCOCC2)CC1 (stereo not shown) [Compound 52, 3-[4-[[4-chloro-2-(difluoromethoxy)phenyl]carbamoyl]-4-(5-isopropylpyrazol-1-yl)-1-piperidyl]-2-methyl-2-tetrahydropyran-4-yl-propanoic acid]
56.6 | CC(C)c1ccnn1C1(C(=O)Nc2ccc(Cl)cc2OC(F)F)CCN(CC2(CC(=O)O)CCOCC2)CC1 [Compound 51, 2-[4-[[4-[[4-chloro-2-(difluoromethoxy)phenyl]carbamoyl]-4-(5-isopropylpyrazol-1-yl)-1-piperidyl]methyl]tetrahydropyran-4-yl]acetic acid]

Reference: patent US20260102383A1, “LPAR1 Inhibitors” (AbbVie Inc., priority 2024, published 2026)
